#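 GI50: concentration for 50% inhibition of growth. TGI is the concentration that stops growth completely.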
# What was measured:
# Assay in all cases: NCI anticancer screen, dose series, 384-well format
# [1] = test system: HOP-92 NSCLC
# [2] = test system: CCRF-CEM leukemia
# [3] = test system: SF-268 CNS
# [4] = test system: SF-539 CNS
# [5] = test system: HCC-2998 colon
# [6] = test system: K-562 leukemia
# [7] = test system: M14 melanoma
# [8] = test system: SK-MEL-2 melanoma
# [9] = test system: NCI-H460 NSCLC
# [10] = test system: TK-10 renal
# [11] = test system: DU-145 prostate
# [12] = test system: SNB-75 CNS
# [13] = test system: A549 NSCLC
# [14] = test system: HCT-116 colon
# [15] = test system: SW-620 colon
# [16] = test system: MCF7 breast
# [17] = test system: HOP-62 NSCLC
# [18] = test system: IGROV1 ovarian
# [19] = test system: MDA-MB-231 breast
# [20] = test system: UACC-257 melanoma
# [21] = test system: MDA-MB-468 breast
# [22] = test system: MALME-3M melanoma
# [23] = test system: 786-0 renal
# [24] = test system: RPMI-8226 leukemia
# [25] = test system: MOLT-4 leukemia
# [26] = test system: UO-31 renal
# [27] = test system: SR leukemia
# [28] = test system: CAKI-1 renal
# [29] = test system: NCI-H226 lung
# [30] = test system: KM12 colon
# [31] = test system: BT-549 breast
# [32] = test system: COLO 205 colon
# [33] = test system: ACHN renal
# [34] = test system: SN12C renal
# [35] = test system: SK-OV-3 ovarian
# [36] = test system: SK-MEL-5 melanoma
# [37] = test system: U251 glioblastoma
# [38] = test system: LOX IMVI melanoma
# [39] = test system: SNB-19 CNS
# [40] = test system: HL-60(TB) leukemia
# [41] = test system: PC-3 prostate
# [42] = test system: NCI-H322M lung
# [43] = test system: NCI-H522 lung
# [44] = test system: OVCAR-8 ovarian
# [45] = test system: HS 578T breast
# [46] = test system: OVCAR-4 ovarian
# [47] = test system: UACC-62 melanoma
compound,measurement,setting,value
Cc1cc(Nc2ncc(Cl)c(Nc3ccccc3S(=O)(=O)C(C)C)n2)c(OC(C)C)cc1C1CCNCC1,GI50,[1],1.21 µM
same,TGI,[1],2.45 µM
same,GI50,[2],1.1 µM
same,TGI,[2],2.43 µM
same,GI50,[3],1.7 µM
same,TGI,[3],3.08 µM
same,GI50,[4],1.87 µM
same,TGI,[4],3.29 µM
same,GI50,[5],0.202 µM
same,TGI,[5],0.552 µM
same,GI50,[6],0.978 µM
same,TGI,[6],2.15 µM
same,GI50,[7],1.27 µM
same,TGI,[7],2.55 µM
same,GI50,[8],1.02 µM
same,TGI,[8],2.19 µM
same,GI50,[9],1.08 µM
same,TGI,[9],2.37 µM
same,GI50,[10],1.57 µM
same,TGI,[10],2.92 µM
same,GI50,[11],1.56 µM
same,TGI,[11],2.92 µM
same,GI50,[12],1.86 µM
same,TGI,[12],3.27 µM
same,GI50,[13],1.4 µM
same,TGI,[13],2.73 µM
same,GI50,[14],0.826 µM
same,TGI,[14],2.07 µM
same,GI50,[15],1.06 µM
same,TGI,[15],2.33 µM
same,GI50,[16],0.297 µM
same,TGI,[16],1.3 µM
same,GI50,[17],1.71 µM
same,TGI,[17],3.1 µM
same,GI50,[18],1.27 µM
same,TGI,[18],2.58 µM
same,GI50,[19],1.48 µM
same,TGI,[19],2.81 µM
same,GI50,[20],0.777 µM
same,TGI,[20],1.53 µM
same,GI50,[21],1.1 µM
same,TGI,[21],2.34 µM
same,GI50,[22],0.551 µM
same,TGI,[22],1.72 µM
same,GI50,[23],1.26 µM
same,TGI,[23],2.52 µM
same,GI50,[24],0.72 µM
same,TGI,[24],1.98 µM
same,GI50,[25],0.711 µM
same,TGI,[25],1.98 µM
same,GI50,[26],1.69 µM
same,TGI,[26],3.07 µM
same,GI50,[27],0.0139 µM
same,TGI,[27],0.0261 µM
same,GI50,[28],1.75 µM
same,TGI,[28],3.14 µM
same,GI50,[29],0.929 µM
same,TGI,[29],2.24 µM
same,GI50,[30],1.45 µM
same,TGI,[30],2.78 µM
same,GI50,[31],1.88 µM
same,TGI,[31],3.3 µM
same,GI50,[32],0.663 µM
same,TGI,[32],1.9 µM
same,GI50,[33],1.77 µM
same,TGI,[33],3.17 µM
same,GI50,[34],1.75 µM
same,TGI,[34],3.14 µM
same,GI50,[35],1.75 µM
same,TGI,[35],3.16 µM
same,GI50,[36],0.668 µM
same,TGI,[36],1.28 µM
same,GI50,[37],1.78 µM
same,TGI,[37],3.19 µM
same,GI50,[38],1.28 µM
same,TGI,[38],2.56 µM
same,GI50,[39],1.83 µM
same,TGI,[39],3.24 µM
same,GI50,[40],0.218 µM
same,TGI,[40],0.49 µM
same,GI50,[41],1.39 µM
same,TGI,[41],2.71 µM
same,GI50,[42],1.32 µM
same,TGI,[42],2.6 µM
same,GI50,[43],1.76 µM
same,TGI,[43],3.15 µM
same,GI50,[44],1.55 µM
same,TGI,[44],2.9 µM
same,GI50,[45],1.64 µM
same,TGI,[45],3 µM
same,GI50,[46],1.99 µM
same,TGI,[46],3.42 µM
same,GI50,[47],1.04 µM
same,TGI,[47],2.32 µM

# Source: PubChem BioAssay (NCI)
